Activity calls are given as the source filed them.
Key:
[1] = cytotoxicity toward NIH3T3 fibroblasts, dose response, counter-screen, cell-based, ATP luminescence, mouse fibroblasts (AID 2010); type: functional;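 further: cells exposed to compound for about 90 hours before reading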
cells [2] = type: functional, cell-based
Bcl-2-like protein 1 = Bcl-2-like protein 1 (Homo sapiens, UniProt Q07817); test: BCL-XL inhibitors, dose response, selectivity assay for MCL1 inhibitor project, biochemical, fluorescence polarization, 1536-well (AID 2218)
HEK293 = test: inhibitors of LMP1-driven NF-kB reporter, dose response, cell-based, HEK293, luciferase, cherry-pick (AID 588343); type: functional; settings: Homo sapiens
[3] = molecular target: Latent membrane protein 1 (Human herpesvirus 4 (strain B95-8), UniProt P03230); test: TES1-eGFP NF-kB reporter inhibition versus Tet-On dsRED, dose response, selectivity assay for LMP1 NF-kB inhibitor project, imaging, HEK293T, dual-color eGFP/dsRED, cherry-picks (AID 588398); type: functional, cell-based
[4] = inhibitors of intracellular T. cruzi replication, confirmation, NIH3T3 host cells, beta-gal luminescence (AID 2044); type: functional, cell-based;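 further: intracellular parasites grown in NIH/3T3 mouse fibroblasts as host cells; luminescent beta-galactosidase reporter signal from transgenic T. cruzi replicating inside host cells; inhibitors lower the luminescence signal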
[5] = molecular target: Induced myeloid leukemia cell differentiation protein Mcl-1 (Homo sapiens, UniProt Q07820); test: MCL1-BIM BH3 interaction inhibitors, dose response, biochemical, fluorescence polarization, BIM-BH3 peptide, 1536-well (AID 2217)
cells [6] = type: functional, cell-based; remark: listed apart in the source
Steroidogenic factor 1 = Steroidogenic factor 1 (Homo sapiens, UniProt Q13285); test: Counterscreen for inverse agonists of the liver receptor homolog-1 (LRH-1; NR5A2): Luminescence-based cell-based high throughput dose response assay to identify inverse agonists of the Steroidogenic Factor 1 Nuclear Receptor (SF1; NR5A1).; type: functional
[7] = molecular target: Nuclear receptor subfamily 5 group A member 2 (Homo sapiens, UniProt O00482); type: functional, cell-based;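 further: HEK293T cells transfected with LRH-1 and a StAR promoter luciferase reporter; potency for inhibitors that lower LRH-1 driven reporter light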
[8] = StAR promoter reporter inhibition counter-screen, dose response, counter-screen for LRH-1 inverse agonist project, cell-based, luminescence, luciferase reporter (AID 651969); type: functional
[9] = enhancers of respiration in Yfh1-depleted yeast, dose response, Friedreich's ataxia, plus single-dose screen (AID 1465); type: functional;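 further: yeast depleted of Yfh1p frataxin homolog grown on glycerol needing respiration; WST-1 tetrazolium dye reduction as measure of cellular dehydrogenase metabolic activity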
[10] = microbe, parasite or virus in culture; type: functional; settings: Mycobacterium tuberculosis
[11] = A High Throughput Confirmatory Assay used to Identify Novel Compounds that Inhibit Mycobacterium Tuberculosis in the absence of Glycerol.; type: functional
[12] = molecular target: Peroxisome proliferator-activated receptor gamma/Nuclear receptor coactivator 2 (Homo sapiens, UniProt P37231); type: functional;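 further: agonist potency for raising coactivator recruitment to the receptor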
[13] = molecular target: Peroxisome proliferator-activated receptor gamma/Nuclear receptor coactivator 1 (Homo sapiens, UniProt P37231); type: functional;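 further: agonist potency as compounds enhance coactivator SRC-1 recruitment to PPARgamma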
[14] = molecular target: Peroxisome proliferator-activated receptor gamma/Nuclear receptor coactivator 3 (Homo sapiens, UniProt P37231); type: functional;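 further: agonist potency for raising coactivator recruitment to the receptor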
[15] = M. tuberculosis H37Rv growth inhibitors, H37Rv strain (AID 1626); type: functional

Sequence of Nuclear receptor subfamily 5 group A member 2 (O00482 whole entry): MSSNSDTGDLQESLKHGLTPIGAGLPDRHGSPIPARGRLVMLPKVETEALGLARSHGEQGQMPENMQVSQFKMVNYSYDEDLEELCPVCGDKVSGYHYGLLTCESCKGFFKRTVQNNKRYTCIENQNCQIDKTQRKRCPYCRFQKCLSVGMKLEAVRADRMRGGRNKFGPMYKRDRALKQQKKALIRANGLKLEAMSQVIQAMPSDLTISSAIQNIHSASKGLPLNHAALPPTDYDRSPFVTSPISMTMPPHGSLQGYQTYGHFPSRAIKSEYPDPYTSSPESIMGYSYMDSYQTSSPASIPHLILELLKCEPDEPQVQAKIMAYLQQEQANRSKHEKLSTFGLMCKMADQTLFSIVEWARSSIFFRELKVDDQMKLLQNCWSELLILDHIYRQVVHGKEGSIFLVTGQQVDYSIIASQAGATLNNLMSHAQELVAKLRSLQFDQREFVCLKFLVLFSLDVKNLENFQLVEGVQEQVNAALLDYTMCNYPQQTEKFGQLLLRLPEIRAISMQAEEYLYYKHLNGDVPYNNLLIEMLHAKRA
Sequence of Peroxisome proliferator-activated receptor gamma/Nuclear receptor coactivator 3 (P37231 whole entry): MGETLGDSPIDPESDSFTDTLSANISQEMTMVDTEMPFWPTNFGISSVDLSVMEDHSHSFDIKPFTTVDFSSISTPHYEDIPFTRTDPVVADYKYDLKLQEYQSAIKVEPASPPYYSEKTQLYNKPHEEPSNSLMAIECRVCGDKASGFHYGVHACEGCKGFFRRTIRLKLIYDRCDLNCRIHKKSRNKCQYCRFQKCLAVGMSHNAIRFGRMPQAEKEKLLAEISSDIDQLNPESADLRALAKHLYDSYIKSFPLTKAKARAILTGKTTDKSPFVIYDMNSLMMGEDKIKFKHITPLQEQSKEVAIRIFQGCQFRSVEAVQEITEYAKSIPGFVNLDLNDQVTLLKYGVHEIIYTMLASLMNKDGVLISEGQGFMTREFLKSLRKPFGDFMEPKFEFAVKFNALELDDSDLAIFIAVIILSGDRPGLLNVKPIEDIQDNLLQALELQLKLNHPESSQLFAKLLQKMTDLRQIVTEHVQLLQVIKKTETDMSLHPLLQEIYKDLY
Sequence of Peroxisome proliferator-activated receptor gamma/Nuclear receptor coactivator 3 (Q9Y6Q9 whole entry, further chain): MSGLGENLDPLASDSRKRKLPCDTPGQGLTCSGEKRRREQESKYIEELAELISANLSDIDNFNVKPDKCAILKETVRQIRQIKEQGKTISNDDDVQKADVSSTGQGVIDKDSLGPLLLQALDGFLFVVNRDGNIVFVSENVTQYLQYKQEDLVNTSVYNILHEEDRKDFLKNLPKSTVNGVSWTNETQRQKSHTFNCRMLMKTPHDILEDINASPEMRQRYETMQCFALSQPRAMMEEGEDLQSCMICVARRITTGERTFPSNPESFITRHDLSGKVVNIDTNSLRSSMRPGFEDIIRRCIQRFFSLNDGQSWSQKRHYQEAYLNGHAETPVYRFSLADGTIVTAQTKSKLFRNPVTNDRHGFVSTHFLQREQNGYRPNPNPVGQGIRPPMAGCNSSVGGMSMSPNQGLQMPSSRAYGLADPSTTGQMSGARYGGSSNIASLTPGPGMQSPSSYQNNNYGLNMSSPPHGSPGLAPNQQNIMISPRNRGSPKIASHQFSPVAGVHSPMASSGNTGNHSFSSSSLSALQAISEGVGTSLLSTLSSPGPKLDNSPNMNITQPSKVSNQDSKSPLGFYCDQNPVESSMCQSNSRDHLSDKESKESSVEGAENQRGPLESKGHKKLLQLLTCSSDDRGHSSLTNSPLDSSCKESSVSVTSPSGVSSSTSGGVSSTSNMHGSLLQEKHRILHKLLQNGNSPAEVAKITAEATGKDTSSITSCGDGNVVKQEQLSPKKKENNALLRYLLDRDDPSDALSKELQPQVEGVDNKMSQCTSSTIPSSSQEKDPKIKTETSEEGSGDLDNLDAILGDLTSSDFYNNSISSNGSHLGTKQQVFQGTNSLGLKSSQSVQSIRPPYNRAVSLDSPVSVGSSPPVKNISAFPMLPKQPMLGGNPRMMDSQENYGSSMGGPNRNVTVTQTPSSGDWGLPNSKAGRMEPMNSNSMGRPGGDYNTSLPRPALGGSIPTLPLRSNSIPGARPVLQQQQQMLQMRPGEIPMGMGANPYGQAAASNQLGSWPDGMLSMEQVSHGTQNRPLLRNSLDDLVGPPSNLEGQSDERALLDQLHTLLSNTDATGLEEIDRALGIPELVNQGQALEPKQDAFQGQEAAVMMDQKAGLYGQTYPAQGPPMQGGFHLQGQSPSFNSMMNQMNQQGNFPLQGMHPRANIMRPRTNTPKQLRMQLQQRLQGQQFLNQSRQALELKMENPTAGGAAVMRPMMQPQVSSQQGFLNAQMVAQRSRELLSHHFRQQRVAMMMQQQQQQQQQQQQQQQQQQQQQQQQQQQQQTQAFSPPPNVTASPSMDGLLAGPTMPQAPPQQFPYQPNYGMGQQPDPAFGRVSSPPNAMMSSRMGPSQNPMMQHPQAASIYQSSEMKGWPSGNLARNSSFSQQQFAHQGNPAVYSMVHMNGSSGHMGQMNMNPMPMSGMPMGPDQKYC
Sequence of Peroxisome proliferator-activated receptor gamma/Nuclear receptor coactivator 2 (P37231 whole entry): as the sequence (P37231 whole entry) above
Sequence of Peroxisome proliferator-activated receptor gamma/Nuclear receptor coactivator 2 (Q15596 whole entry, further chain): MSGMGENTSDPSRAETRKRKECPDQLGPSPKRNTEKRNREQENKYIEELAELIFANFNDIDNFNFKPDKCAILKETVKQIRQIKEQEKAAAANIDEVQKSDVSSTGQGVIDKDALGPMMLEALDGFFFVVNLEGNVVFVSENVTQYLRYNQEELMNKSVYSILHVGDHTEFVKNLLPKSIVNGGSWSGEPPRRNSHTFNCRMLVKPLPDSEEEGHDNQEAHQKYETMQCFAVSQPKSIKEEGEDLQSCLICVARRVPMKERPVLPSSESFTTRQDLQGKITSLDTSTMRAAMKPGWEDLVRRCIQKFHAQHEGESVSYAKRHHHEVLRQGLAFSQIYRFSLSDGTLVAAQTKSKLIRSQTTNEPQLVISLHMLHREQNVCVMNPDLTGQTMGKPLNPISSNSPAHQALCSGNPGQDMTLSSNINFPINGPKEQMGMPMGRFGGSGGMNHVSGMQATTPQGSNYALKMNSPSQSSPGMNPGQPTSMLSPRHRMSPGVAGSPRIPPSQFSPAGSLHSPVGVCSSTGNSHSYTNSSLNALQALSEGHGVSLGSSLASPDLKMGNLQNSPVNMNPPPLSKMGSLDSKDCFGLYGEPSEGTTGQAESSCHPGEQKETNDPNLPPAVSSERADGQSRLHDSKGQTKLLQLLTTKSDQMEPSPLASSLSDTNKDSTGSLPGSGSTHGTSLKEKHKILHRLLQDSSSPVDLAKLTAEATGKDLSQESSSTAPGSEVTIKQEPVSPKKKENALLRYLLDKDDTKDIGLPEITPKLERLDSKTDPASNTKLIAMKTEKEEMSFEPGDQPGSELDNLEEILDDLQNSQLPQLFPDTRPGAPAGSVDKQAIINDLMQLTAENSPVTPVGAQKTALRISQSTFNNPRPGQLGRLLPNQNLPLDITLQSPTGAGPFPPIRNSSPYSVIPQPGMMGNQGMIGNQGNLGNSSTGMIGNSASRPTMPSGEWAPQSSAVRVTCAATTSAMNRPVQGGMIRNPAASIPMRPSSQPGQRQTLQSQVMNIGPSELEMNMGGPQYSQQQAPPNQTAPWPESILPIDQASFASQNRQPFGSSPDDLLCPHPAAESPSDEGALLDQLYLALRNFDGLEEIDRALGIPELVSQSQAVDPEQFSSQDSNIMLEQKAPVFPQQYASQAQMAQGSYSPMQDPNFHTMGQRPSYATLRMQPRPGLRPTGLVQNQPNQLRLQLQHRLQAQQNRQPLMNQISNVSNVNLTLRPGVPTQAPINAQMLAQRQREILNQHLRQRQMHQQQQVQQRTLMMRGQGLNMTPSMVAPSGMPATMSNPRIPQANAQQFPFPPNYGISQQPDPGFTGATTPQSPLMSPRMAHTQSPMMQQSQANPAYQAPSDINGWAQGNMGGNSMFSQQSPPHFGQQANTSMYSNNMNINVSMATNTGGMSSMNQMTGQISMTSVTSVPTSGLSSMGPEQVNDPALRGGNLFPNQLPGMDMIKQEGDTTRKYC
Sequence of Bcl-2-like protein 1 (Q07817 whole entry): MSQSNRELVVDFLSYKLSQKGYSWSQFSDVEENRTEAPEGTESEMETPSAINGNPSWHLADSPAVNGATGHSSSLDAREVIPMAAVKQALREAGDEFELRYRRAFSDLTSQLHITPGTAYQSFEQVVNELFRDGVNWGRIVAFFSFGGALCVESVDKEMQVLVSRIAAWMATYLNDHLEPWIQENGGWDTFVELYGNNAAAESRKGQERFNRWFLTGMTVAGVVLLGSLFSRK
Sequence of Latent membrane protein 1 (P03230 whole entry): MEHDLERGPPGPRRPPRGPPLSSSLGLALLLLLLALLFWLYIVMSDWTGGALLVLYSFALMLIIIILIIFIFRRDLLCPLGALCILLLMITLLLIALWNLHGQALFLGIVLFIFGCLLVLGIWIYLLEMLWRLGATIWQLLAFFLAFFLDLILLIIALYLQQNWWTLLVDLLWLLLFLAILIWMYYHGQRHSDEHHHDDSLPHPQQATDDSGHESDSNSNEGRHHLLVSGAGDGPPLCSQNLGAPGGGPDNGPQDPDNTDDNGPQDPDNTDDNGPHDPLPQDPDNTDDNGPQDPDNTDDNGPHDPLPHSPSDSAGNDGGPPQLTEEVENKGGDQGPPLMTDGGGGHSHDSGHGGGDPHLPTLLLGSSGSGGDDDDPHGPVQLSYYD

## Nc1ccc(C(=O)N/N=C\c2cc(N=Nc3cccc4ccccc34)ccc2O)cc1
[1]
  EC50: 7.41 µM (active)
Cells [2]
  EC50: 7.62 µM (active)
Bcl-2-like protein 1
  IC50: > 109 µM (not active)
HEK293
  AC50: 11.1 µM (active)
[3]
  AC50: 30.2 µM (active)
[4]
  EC50: 1.12 µM (active)
[5]
  IC50: 6.83 µM (active)
Cells [6]
  EC50: > 350 µM (not active)

## CC1CCCN(c2cc(N(C)CCO)c([N+](=O)[O-])c3nonc23)C1 (stereo not drawn)
Steroidogenic factor 1
  IC50: 7.01 µM (active)
[7]
  IC50: 12.3 µM (inactive)
[8]
  IC50: 35.9 µM (inactive)
[9]
  EC50: > 100 µM (active)

## Cc1ccc(-c2noc(=O)n2CC(=O)c2ccc(Cl)cc2)cc1
[10]
  CC50: > 40 µM (active)
[11]
  IC50: > 50 µM (active)

## O=C(COc1ccccc1-c1ccccc1)NCc1ccco1
[12]
  EC50: > 79.4 µM (not active)
[13]
  EC50: > 79.4 µM (not active)
[14]
  EC50: > 79.4 µM (not active)

## O=C(CSC1=NCCS1)Nc1ccc2ccccc2c1
[15]
  IC50: > 100 µM (active)

— ChEMBL document CHEMBL1201862, “PubChem BioAssay data set” (2004)
